# Reference: patent EP0821954A1, “Method for treating mental retardation” (ELI LILLY AND COMPANY, priority 1996, dated 1998)
# Legend:
# [1] = target: muscarinic cholinergic receptors; assay: 3H-oxotremorine-M binding study; conditions: inhibition of binding of 3H-oxotremorine-M; read-out: inhibition costant (Ki)
# m4 receptors = m4 receptors (Homo sapiens, UniProt P08173); type: cell-based; conditions: CHO m4 cells treated with pertussis toxin
# 5HT2C = target: T1, 5HT2C (Homo sapiens, UniProt P28335); assay: 5HT2C receptor affinity; type: binding; conditions: 5HT2C receptor subtype
# T1 sequence (P28335 33-458): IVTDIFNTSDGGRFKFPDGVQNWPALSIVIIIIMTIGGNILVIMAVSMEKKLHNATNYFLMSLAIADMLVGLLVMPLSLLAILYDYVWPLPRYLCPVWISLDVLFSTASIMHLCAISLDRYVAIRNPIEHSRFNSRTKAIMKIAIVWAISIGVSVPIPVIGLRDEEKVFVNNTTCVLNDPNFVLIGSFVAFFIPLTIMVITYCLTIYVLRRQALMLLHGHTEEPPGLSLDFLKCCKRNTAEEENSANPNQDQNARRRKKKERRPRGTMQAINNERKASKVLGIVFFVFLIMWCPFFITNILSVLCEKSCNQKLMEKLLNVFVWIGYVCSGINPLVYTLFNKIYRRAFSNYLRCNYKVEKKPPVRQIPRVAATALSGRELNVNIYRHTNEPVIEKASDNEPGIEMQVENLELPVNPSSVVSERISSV
# m4 receptors, sequence (P08173 whole entry): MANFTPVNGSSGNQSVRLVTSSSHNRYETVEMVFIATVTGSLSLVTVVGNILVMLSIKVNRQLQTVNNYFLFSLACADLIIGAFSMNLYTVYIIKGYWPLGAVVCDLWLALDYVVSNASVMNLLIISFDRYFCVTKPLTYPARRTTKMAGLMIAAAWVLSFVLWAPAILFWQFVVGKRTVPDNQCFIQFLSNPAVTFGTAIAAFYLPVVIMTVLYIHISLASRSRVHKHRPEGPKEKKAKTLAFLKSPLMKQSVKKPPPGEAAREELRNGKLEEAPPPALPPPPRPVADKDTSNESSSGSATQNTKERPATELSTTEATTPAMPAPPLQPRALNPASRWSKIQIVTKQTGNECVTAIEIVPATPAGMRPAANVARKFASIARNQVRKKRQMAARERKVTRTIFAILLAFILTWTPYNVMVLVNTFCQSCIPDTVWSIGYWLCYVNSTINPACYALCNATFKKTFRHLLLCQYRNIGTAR
smiles,measurement,setting,value
"CCCCCCOc1nsnc1C1=CCCN(C)C1 [Xanomeline, 3-(4-hexyloxy-1,2,5-thiadiazol-3-yl)-1,2,5,6-tetrahydro-1-methylpyridine]",Ki,[1],0.002 µM
same,formation of cAMP,m4 receptors,efficaciously and potently stimulated the formation of cAMP
same,Ki,5HT2C,0.12 µM
